# Several values for one entry are separate records, joined by “and”; a condition that tells them apart may be missing. Identical values can stand only once. Entries after “also recorded” stand apart in the source; their conditions may differ. Where no end group is shown, it is not given here.
# Key:
# [1] = biological target: T1, Vaccinia topoisomerase (type Ib) (Vaccinia virus, UniProt P68698); experiment: biochemical; format: biochemical; conditions: for IC50: IC50 for DNA cleavage (covalent adduct formation)
# T1 construct: made in house; host or cells: Escherichia coli BL21 infected with bacteriophage λCE6
# double-stranded DNA = experiment: Peptide binding to DNA (electrophoretic mobility shift)
# Source text: Do peptides KWWCRW and KWWWRW inhibit recombination by interfering with the formation of higher order complexes? The formation of intermediates in the bent-L pathway depends on Int contacting two different types of sites, the higher affinity arm sites and the lower affinity core sites flanking the loci of DNA cleavage and strand exchange (FIG. 9). […] To determine the effect of KWWCRW on interactions of Int with its core binding sites, we assembled the recombination complexes, known as intasomes or unimolecular complexes (UMC), on an attL variant substrate with 4 mutations in the IHF binding site, collectively known as QH′. These mutations prevent the specific binding of IHF to the QH′ sequence (Gardner and Nash, 1986), but still allow IHF to bind and bend DNA nonspecifically (Segall et al., 1994). […] We next tested the assembly of bent-L pathway intermediates. At 10 μM peptide, all of the labeled DNA was shifted into the well. However, at lower peptide concentrations that still inhibited recombination (0.1-1 μM), intermediates were assembled normally. In fact, one of the intermediates, the bimolecular complex (BMC), accumulates substantially in the presence of the peptide (see also FIG. 12). […] This agrees perfectly with our observations that suboptimal concentrations of peptide lead to accumulation of Holliday junctions (FIG. 10). […] The peptide shifts att site DNA even in the complete absence of Int (data not shown), confirming that KWWCRW interacts with DNA in a concentration-dependent fashion and in a manner that affects the mobility of the DNA much more drastically than expected for the size of the peptides.
# Int Assays. Site-specific recombination and gel mobility shift assays were performed as described (Segall, 1998). Briefly, reactions were performed in a total volume of 10 or 20 μl and typically contained 1-2 nM radiolabeled att site as specified, 4 nM unlabeled att site, 100-300 ng salmon sperm DNA as nonspecific competitor, 44 mM Tris-Ci (pH 8.0), 60 mM KCl, 0.05 mg/ml bovine serum albumin, 7 mM Tris borate (pH 8.9), 5 mM spermidine, 1.3 mM EDTA, and 14.6% v/v glycerol. Any deviation from this formulation is noted in the figure legends. Gel shift reactions were incubated for 90 minutes at 37° C., layered without loading dyes onto 5% native polyacrylamide gel (29 acrylamide: 1 bis-acrylamide) and electrophoresed in 0.5× Tris borate EDTA buffer. Recombination reactions were stopped with 0.2× volume of 2% SDS, layered onto 5% polyacrylamide Tris/SDS gels, and electrophoresed in 1× Tris Tricine SDS buffer at 100 mA (Segall, 1998). Dried gels were visualized and quantitated using a Molecular Dynamics PhosphorImager.
# [2] = biological target: T2, E. coli topoisomerase I (type Ia) (Escherichia coli, UniProt P06612); experiment: biochemical; conditions: for IC50: IC50, DNA relaxation (activity reduced by one-half), supercoiled DNA
# T2 sequence (P06612 1-865): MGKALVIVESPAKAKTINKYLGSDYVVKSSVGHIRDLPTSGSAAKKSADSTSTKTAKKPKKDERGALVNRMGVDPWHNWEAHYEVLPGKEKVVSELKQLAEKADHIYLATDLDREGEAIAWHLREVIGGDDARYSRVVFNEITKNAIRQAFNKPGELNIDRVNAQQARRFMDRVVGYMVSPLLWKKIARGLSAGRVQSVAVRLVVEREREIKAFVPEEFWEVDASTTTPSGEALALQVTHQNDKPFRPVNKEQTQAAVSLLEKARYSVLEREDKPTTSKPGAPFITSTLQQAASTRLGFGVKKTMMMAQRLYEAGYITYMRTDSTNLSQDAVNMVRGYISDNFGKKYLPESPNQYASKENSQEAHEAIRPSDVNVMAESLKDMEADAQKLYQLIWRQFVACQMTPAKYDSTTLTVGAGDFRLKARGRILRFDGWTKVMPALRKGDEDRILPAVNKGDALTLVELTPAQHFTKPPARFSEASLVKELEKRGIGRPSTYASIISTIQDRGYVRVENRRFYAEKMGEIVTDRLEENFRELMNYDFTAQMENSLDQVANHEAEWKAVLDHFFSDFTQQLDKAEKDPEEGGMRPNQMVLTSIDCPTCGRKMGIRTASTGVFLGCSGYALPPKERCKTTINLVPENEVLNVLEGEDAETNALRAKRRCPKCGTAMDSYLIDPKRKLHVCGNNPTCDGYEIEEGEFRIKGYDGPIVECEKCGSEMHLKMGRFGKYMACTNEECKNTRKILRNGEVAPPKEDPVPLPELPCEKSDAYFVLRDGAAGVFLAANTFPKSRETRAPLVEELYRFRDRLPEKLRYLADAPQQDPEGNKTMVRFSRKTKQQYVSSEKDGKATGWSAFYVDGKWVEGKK
# Source text: E. coli topoisomerase I (TopA) exemplifies the type IA topoisomerase family. Type IA enzymes are mechanistically and structurally unrelated to the topoisomerase IB/tyrosine recombinase superfamily of DNA strand transferases.
# [3] = biological target: T1, Vaccinia topoisomerase (type Ib); experiment: biochemical; conditions: for IC50: IC50 for plasmid relaxation (activity reduced by one-half), pUC19 DNA
# [4] = biological target: T3, bacteriophage P1 Cre protein (Escherichia phage P1, UniProt P06956); experiment: Cre-mediated recombination between two lox site substrates; format: biochemical
# T3 sequence (P06956 1-343): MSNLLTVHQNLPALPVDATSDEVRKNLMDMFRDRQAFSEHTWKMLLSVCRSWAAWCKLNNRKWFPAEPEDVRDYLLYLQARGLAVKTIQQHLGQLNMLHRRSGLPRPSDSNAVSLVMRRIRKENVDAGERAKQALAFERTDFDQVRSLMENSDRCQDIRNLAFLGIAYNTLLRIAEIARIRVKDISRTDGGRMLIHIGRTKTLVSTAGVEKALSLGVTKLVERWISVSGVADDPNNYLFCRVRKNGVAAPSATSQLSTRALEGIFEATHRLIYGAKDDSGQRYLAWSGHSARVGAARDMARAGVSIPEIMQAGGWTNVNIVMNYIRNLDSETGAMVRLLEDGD
# Source text: In order to test the specificity of peptide inhibition, we determined whether peptide KWWCRW affects the activity of a relative of the Int recombinase, namely the bacteriophage P1 Cre protein. Indeed, the peptide inhibits Cre-mediated recombination between two lox site substrates (Cassell and Segall, unpublished results).
# [5] = peptide concentrations up to 42 μM
Substance,effect on rate of transesterification [1],inhibition of covalent adduct formation [1] [%],IC50 [1],binding to DNA (double-stranded DNA),IC50 [2] [µM],IC50 [3] [µM],effect on Cre-mediated recombination [4],reduction of covalent adduct formation [1] [%],inhibition at 0.7 µM ([1]; read-out: inhibition of cleavage) [%],peptide concentration that shifts the mobility of double-stranded DNA (double-stranded DNA; reactions with at least 50 ng salmon sperm DNA) [µM],effect on transesterification (DNA cleavage) [1],"effect on DNA relaxation [2, 5]","effect on DNA relaxation [3, 5]",accumulation of Holliday junctions in Cre-mediated recombination [4]
"KWWWRW-NH2 [Peptide 56, KWWWRW]",slowed the rate of transesterification,99,~0.5 µM,appear to bind to DNA,7 to 10,3 to 4,inhibit,–,–,–,–,–,–,–
"KWWCRW-NH2 [Peptide 59, KWWCRW]",slowed the rate of transesterification,99,~0.5 µM and 0.5 µM,appear to bind to DNA; also recorded: binds double stranded DNA by itself,8,3.5,inhibit,90,40,≥ 5,–,–,–,–
"WKHYNY-NH2 [Peptide 52, WKHYNY]",–,–,–,do not bind double-stranded DNA,–,–,–,–,–,–,did not inhibit transesterification; also recorded: do not inhibit cleavage,no effect,no effect,does cause accumulation of Holliday junctions
